Measured values as given in US10047051B2, “Substituted pyridines and method of use” (AbbVie S.á{acute over (.)}r.l., priority 2015, dated 2018).

How the values were obtained:
Format in all cases: cell-based
[1] = biological target: G551D CFTR (Homo sapiens, UniProt P13569, G551D); assay: TECC assay, FRT-CFTR G551D protocol; settings: FRT cells stably transfected with G551D CFTR, high expression cells, increase in Isc after forskolin
Protocol: For G551D recordings, Fischer Rat Thyroid (FRT) cells stably transfected with G551D CFTR (a low CFTR-G551D expressing cell line and a high expressing CFTR-G551D cell line from Rosalind Franklin University of Medicine and Science, North Chicago, Ill.) are plated on Transwell® supports (Costar 6.5 mm diameter, 0.4 μm pore size). The cells are grown for 8-10 days under liquid-liquid interface conditions prior to electrophysiological readings. For electrophysiological recording, the FRT-G551D cells are mounted in the TECC heating plate for electrophysiological measurement and kept at 37° C. The epithelia are bathed in HEPES buffered culturing medium without FBS on both the basolateral and apical sides. Apical amiloride is used to inhibit the endogenous ENaC currents while forkolin is applied on both apical and basolateral side to stimulate CFTR. After forskolin triggering, compounds are added on both sides to test their potential for increasing CFTR gating. Measurements are done during a 10 minute timeframe with recordings every 2 minutes. The increase in Isc is used as a measure for the increased CFTR activity, EC50 values can be generated by measuring impact of different concentrations of compound on Isc on the cells, for this purpose each transwell is treated with a different compound concentration. Inh-172, an inhibitor specific for CFTR, is used to test the specificity of the tested compounds.

[2] = biological target: ΔF508 CFTR (Homo sapiens, UniProt P13569, DEL508-508); assay: TECC assay, FRT-CFTR ΔF508 protocol; settings: FRT cells stably transfected with ΔF508 CFTR, 3 μM VX809 24 hours, increase in transepithelial conductance (Gt), high expression cells
Protocol: For ΔF508 recordings, Fischer Rat Thyroid (FRT) cells stably transfected with ΔF508 CFTR (cell line from Rosalind Franklin University of Medicine and Science, North Chicago, Ill.) are plated on Transwell® supports (Costar 6.5 mm diameter, 0.4 μm pore size Cat n#3378). The cells are grown for 8-10 days under liquid-liquid interface conditions prior to electrophysiological readings. The differentiated cells are treated with 3 μM VX809 (2626 South Loop West, Suite 225, Houston, Tex. 77054 USA, Cat n# S1565) to allow sufficient expression of properly folded CFTR protein on the membrane (24 hours basolateral treatment), prior to electrophysiological recordings. For electrophysiological recording, the FRT-ΔF508 cells are mounted in the TECC heating plate for electrophysiological measurement and kept at 37° C. The epithelia are bathed in HEPES buffered culturing medium without FBS on both the basolateral and apical sides. Apical amiloride is used to inhibit the endogenous ENaC currents while forkolin is applied on both apical and basolateral side to stimulate CFTR. After forskolin triggering, compounds are added on both sides to test their potential for increasing CFTR gating. Measurements are done during a 10 minute timeframe with recordings every 2 minutes. The increase in transepithelial conductance (Gt) is used as a measure for the increased CFTR activity, EC50 values can be generated by measuring impact of different concentrations of compound on Gt of the cells, for this purpose each transwell is treated with a different compound concentration. Inh-172, an inhibitor specific for CFTR, is used to test the specificity of the tested compounds.

[3] = biological target: T1, CFTR G551D/ΔF508 (Homo sapiens, UniProt P13569, G551D); assay: TECC assay, primary bronchial epithelial cells, CFTR G551D/ΔF508; settings: primary bronchial epithelial cells heterozygous G551D/ΔF508, acute mode, increase in Isc after forskolin
T1 construct: host or cells: primary human bronchial epithelial cells from CF patients heterozygous G551D/ΔF508, no corrector pre-treatment
Protocol: The TECC (Tranepithelial Clamp Circuit, EP-design) assay measures the functionality of the cystic fibrosis Transmembrane Conductance regulator (CFTR) by measuring the short circuit current (Isc) generated over the basolateral and apical membrane of lung epithelial cells. In TECC the transepithelial potential PD and transepithelial resistance (Rt) are measured in an open circuit and transformed to Isc using Ohm's law. 24 Wells can be measured simultaneously allowing a higher throughput compared to Ussing chambers.
For this purpose, bronchial epithelial cells isolated from CF patients homozygous for the CFTR ΔF508 mutation (hAEC-CF, Epithelix) are plated on type IV collagen-coated Transwell® supports (Costar). Human airway epithelia are generated by provision of an air-liquid interface for 21 days to form well-differentiated polarized cultures that resemble in vivo pseudo-stratified ciliated epithelium (Fulcher, M. L., Gabriel, S., Burns, K. A., Yankaskas, J. R., Randell, S. H., 2005. Well-differentiated human airway epithelial cell cultures. Methods Mol. Med. 107, 183-206). In the case of the homozygous ΔF508 CFTR samples, the differentiated cells are treated with 3 μM VX809 (2626 South Loop West, Suite 225, Houston, Tex. 77054 USA, Cat n# S1565) to allow sufficient expression of properly folded CFTR protein on the membrane (48 hours basolateral treatment and 24 hours apical treatment), prior to electrophysiological recordings. For heterozygous G551D/ΔF508, differentiated cells are used as such for the recordings.
Information on the compounds can be retrieved on the homozygous ΔF508 CFTR samples looking at increased CFTR activity when compounds are added in an acute mode or in a chronic mode. On G551D/ΔF508 CFTR heterozygous samples compounds are added in an acute mode to the differentiated cells.
For the acute mode, for electrophysiological recording, the human airway epithelia are mounted in the TECC heating plate for electrophysiological measurement and kept at 37° C. The epithelia are bathed in a NaCl-Ringer solution (120 mM NaCl, 25 mM NaHCO3, 1.2 mM CaCl2, 1.2 mM MgCl2, 0.8 mM KH2PO4, 0.8 mM K2HPO4, pH 7.4, 5 mM glucose) on both the basolateral and apical sides. Apical amiloride is used to inhibit the endogenous ENaC currents while forkolin is applied on both apical and basolateral side to stimulate CFTR. After forskolin triggering, compounds are added on both sides to test their potential for increasing CFTR gating. Measurements are done during a 20 minute timeframe with recordings every 2 minutes. The increase in Isc is used as a measure for the increased CFTR activity, EC50 values can be generated by measuring impact of different concentrations of compound on Isc on primary cells, for this purpose each transwell is treated with a different compound concentration. Inh-172, an inhibitor specific for CFTR, is used to test the specificity of the tested compounds.
When subjected to this protocol, the following values were obtained. The difference between ΔIsc measured as DMSO (baseline), and the ΔIsc measured with the compound tested.

T1 sequence (P13569 whole entry F508del/G551D): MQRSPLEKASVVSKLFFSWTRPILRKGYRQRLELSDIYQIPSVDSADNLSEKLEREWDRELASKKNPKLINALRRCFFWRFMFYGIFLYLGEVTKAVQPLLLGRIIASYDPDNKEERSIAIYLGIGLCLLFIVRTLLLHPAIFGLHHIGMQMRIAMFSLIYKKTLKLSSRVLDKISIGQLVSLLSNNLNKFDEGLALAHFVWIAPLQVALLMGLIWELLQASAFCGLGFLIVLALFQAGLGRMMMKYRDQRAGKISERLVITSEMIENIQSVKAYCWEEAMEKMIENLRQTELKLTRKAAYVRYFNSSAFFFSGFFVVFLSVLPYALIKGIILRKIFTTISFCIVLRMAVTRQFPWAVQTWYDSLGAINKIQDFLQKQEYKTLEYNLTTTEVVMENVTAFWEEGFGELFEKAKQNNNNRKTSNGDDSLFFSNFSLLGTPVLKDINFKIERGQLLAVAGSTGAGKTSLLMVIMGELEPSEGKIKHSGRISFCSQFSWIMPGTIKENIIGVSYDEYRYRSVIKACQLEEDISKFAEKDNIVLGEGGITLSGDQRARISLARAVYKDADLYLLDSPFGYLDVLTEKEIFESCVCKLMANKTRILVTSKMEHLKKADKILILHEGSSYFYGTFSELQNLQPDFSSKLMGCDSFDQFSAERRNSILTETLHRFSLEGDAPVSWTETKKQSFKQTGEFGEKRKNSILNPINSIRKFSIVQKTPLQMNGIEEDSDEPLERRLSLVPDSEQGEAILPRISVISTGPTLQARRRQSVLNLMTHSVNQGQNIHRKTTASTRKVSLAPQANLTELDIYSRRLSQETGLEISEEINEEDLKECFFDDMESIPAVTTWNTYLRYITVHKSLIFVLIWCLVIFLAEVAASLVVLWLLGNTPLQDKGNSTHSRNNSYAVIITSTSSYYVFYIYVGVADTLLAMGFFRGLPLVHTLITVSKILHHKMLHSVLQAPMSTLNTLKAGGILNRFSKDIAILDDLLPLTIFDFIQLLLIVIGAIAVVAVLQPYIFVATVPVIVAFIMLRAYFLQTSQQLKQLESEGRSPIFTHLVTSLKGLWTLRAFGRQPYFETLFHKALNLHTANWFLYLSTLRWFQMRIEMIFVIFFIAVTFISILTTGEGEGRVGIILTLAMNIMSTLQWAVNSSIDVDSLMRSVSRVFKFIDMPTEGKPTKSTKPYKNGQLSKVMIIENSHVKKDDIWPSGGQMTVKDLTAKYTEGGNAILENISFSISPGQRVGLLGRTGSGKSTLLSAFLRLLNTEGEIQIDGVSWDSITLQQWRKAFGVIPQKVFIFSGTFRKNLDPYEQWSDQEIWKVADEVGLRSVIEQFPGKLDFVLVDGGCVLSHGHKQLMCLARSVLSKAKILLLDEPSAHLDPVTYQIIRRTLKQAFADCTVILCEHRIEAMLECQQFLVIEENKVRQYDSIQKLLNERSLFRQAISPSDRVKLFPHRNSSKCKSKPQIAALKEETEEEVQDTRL
Chain of ΔF508 CFTR (P13569 with tags, fused parts or gaps DEL508-508): as the sequence (P13569 whole entry F508del/G551D) above, with D550G counted along it
Chain of G551D CFTR (P13569 whole entry G551D): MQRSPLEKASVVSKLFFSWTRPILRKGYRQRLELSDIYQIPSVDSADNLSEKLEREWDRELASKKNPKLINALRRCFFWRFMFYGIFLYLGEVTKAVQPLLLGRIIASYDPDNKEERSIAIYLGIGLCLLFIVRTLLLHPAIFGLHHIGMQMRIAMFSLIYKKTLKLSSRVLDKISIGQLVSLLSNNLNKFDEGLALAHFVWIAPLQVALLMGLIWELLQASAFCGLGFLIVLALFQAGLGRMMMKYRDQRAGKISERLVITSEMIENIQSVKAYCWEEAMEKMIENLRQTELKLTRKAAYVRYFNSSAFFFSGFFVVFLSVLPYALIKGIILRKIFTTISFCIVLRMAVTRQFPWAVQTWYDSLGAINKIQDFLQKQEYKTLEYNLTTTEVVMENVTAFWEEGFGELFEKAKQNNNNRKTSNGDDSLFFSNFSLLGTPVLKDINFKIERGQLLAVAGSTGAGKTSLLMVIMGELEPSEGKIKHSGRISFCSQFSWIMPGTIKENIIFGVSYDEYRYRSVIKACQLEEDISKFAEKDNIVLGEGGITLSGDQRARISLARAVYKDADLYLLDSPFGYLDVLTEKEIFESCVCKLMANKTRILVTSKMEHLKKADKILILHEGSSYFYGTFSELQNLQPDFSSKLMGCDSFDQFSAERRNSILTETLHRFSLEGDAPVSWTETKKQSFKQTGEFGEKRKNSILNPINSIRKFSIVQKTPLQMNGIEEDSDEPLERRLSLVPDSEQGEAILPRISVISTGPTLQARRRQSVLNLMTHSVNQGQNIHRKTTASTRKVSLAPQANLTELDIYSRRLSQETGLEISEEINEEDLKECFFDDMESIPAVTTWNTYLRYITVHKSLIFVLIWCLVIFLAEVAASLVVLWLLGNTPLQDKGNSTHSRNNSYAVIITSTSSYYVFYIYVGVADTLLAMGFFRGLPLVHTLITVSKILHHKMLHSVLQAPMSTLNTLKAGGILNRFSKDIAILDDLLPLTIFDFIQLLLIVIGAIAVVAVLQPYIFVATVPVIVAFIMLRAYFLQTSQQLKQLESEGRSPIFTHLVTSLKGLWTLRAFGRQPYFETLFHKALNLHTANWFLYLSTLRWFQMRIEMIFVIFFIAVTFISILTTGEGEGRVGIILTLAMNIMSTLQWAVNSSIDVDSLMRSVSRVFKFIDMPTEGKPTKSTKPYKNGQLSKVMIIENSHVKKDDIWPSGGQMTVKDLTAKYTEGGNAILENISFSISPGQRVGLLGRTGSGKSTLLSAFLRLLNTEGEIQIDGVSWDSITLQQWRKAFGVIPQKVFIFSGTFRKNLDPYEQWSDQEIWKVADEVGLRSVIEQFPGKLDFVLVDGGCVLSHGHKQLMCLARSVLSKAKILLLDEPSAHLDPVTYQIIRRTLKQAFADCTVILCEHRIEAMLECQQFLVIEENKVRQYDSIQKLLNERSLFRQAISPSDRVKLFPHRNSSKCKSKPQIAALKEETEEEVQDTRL

In the case of CC(C)(O)CNC(=O)c1ncc(S(=O)(=O)c2ccc(OC(F)(F)F)cc2)cc1N [Compound 1, 3-amino-N-(2-hydroxy-2-methylpropyl)-5-{[4-(trifluoromethoxy)phenyl]sulfonyl}pyridine-2-carboxamide], the EC50 [1] is reported as 0.645 µM and the EC50 [2] is reported as 0.18 µM.

For CC(O)(CNC(=O)c1ncc(S(=O)(=O)c2ccc(OC(F)(F)F)cc2)cc1N)C(F)(F)F (stereo not shown) [Compound 2, 3-amino-N-(3,3,3-trifluoro-2-hydroxy-2-methylpropyl)-5-{[4-(trifluoromethoxy)phenyl]sulfonyl}pyridine-2-carboxamide], the EC50 [2] was 0.0701 µM.

Work on Nc1cc(S(=O)(=O)c2ccc(OC(F)(F)F)cc2)cnc1C(=O)NCC(O)C(F)(F)F (stereo not shown) [Compound 6, 3-amino-N-(3,3,3-trifluoro-2-hydroxypropyl)-5-{[4-(trifluoromethoxy)phenyl]sulfonyl}pyridine-2-carboxamide] yielded an EC50 [1] of 0.443 µM.

Work on Nc1cc(S(=O)(=O)c2ccc(OC(F)(F)F)cc2)cnc1C(=O)NCCO [Compound 14, 3-amino-N-(2-hydroxyethyl)-5-{[4-(trifluoromethoxy)phenyl]sulfonyl}pyridine-2-carboxamide] yielded an EC50 [3] of 5.3 µM and an EC50 [1] of 11.7 µM.

C[C@H](O)CNC(=O)c1ncc(S(=O)(=O)c2ccc(OC(F)(F)F)cc2)cc1N [Compound 21, 3-amino-N-[(2S)-2-hydroxypropyl]-5-{[4-(trifluoromethoxy)phenyl]sulfonyl}pyridine-2-carboxamide] gave an EC50 [3] of 0.847 µM and an EC50 [1] of 1.63 µM.

With Nc1cc(S(=O)(=O)c2ccc(F)cc2)cnc1C(=O)NC[C@H](O)C(F)(F)F [Compound 25, 3-amino-5-[(4-fluorophenyl)sulfonyl]-N-[(2S)-3,3,3-trifluoro-2-hydroxypropyl]pyridine-2-carboxamide] the EC50 [1] was 1.2 µM.

Compound Nc1cc(S(=O)(=O)c2ccc(OC(F)(F)F)cc2)cnc1C(=O)NC[C@H](O)C(F)(F)F [Compound 26, 3-amino-N-[(2S)-3,3,3-trifluoro-2-hydroxypropyl]-5-{[4-(trifluoromethoxy)phenyl]sulfonyl}pyridine-2-carboxamide] has an EC50 [1] of 1.23 µM.

Nc1cc(S(=O)(=O)c2ccc(OC(F)(F)F)cc2)cnc1C(=O)NCC(O)COCC1CC1 (stereo not shown) [Compound 31, 3-amino-N-[3-(cyclopropylmethoxy)-2-hydroxypropyl]-5-{[4-(trifluoromethoxy)phenyl]sulfonyl}pyridine-2-carboxamide] showed an EC50 [3] of 0.632 µM and an EC50 [1] of 0.824 µM.

For Nc1cc(S(=O)(=O)c2ccc(F)cc2)cnc1C(=O)NC[C@@H](O)C(F)(F)F [Compound 36, 3-amino-5-[(4-fluorophenyl)sulfonyl]-N-[(2R)-3,3,3-trifluoro-2-hydroxypropyl]pyridine-2-carboxamide], the EC50 [3] was 1.01 µM, the EC50 [1] was 0.735 µM and the EC50 [2] was 0.0632 µM.

In the case of Nc1cc(S(=O)(=O)c2ccc(OC(F)(F)F)cc2)cnc1C(=O)NC[C@@H](O)C(F)(F)F [Compound 37, 3-amino-N-[(2R)-3,3,3-trifluoro-2-hydroxypropyl]-5-{[4-(trifluoromethoxy)phenyl]sulfonyl}pyridine-2-carboxamide], the EC50 [3] is reported as 0.232 µM and the EC50 [2] is reported as 0.0104 µM.

For Nc1cc(S(=O)(=O)c2ccc(OC(F)(F)F)cc2)cnc1C(=O)N1CC(F)(F)C1 [Compound 40, (3-amino-5-{[4-(trifluoromethoxy)phenyl]sulfonyl}pyridin-2-yl)(3,3-difluoroazetidin-1-yl)methanone], the EC50 [3] was 0.443 µM.

COC[C@H](O)CNC(=O)c1ncc(S(=O)(=O)c2ccc(C(F)(F)F)cc2)cc1N [Compound 70, 3-amino-N-[(2R)-2-hydroxy-3-methoxypropyl]-5-{[4-(trifluoromethyl)phenyl]sulfonyl}pyridine-2-carboxamide] showed an EC50 [3] of 3.52 µM and an EC50 [1] of 0.622 µM.

C[C@H](O)CNC(=O)c1ncc(S(=O)(=O)c2ccc(C(F)(F)F)cc2)cc1N [Compound 100, 3-amino-N-[(2S)-2-hydroxypropyl]-5-{[4-(trifluoromethyl)phenyl]sulfonyl}pyridine-2-carboxamide] gave an EC50 [3] of 2.38 µM and an EC50 [1] of 1.19 µM.
